Common to all, as to test: kinase profiling panel
Holding throughout (type): biochemical
What all share (settings): read-out: % Activity Remaining

One assay addresses EF2K (Homo sapiens, UniProt O00418). From the text: (§1) Protein kinase profiling against a Dundee panel of 140 protein kinases was undertaken at the International Centre for Protein Kinase Profiling. The result for each kinase was presented as a mean kinase activity of the reaction taken in triplicate relative to a control sample treated with DMSO. Assay conditions and abbreviations are available at http://www.kinase-screen.mrc.ac.uk.

A further assay concerns the target JNK3 (Homo sapiens, UniProt P53779).
Description: as §1

In a further assay the target is T1, EIF2AK3 (Homo sapiens, UniProt Q9NZJ5).
T1 sequence (Q9NZJ5 30-1116): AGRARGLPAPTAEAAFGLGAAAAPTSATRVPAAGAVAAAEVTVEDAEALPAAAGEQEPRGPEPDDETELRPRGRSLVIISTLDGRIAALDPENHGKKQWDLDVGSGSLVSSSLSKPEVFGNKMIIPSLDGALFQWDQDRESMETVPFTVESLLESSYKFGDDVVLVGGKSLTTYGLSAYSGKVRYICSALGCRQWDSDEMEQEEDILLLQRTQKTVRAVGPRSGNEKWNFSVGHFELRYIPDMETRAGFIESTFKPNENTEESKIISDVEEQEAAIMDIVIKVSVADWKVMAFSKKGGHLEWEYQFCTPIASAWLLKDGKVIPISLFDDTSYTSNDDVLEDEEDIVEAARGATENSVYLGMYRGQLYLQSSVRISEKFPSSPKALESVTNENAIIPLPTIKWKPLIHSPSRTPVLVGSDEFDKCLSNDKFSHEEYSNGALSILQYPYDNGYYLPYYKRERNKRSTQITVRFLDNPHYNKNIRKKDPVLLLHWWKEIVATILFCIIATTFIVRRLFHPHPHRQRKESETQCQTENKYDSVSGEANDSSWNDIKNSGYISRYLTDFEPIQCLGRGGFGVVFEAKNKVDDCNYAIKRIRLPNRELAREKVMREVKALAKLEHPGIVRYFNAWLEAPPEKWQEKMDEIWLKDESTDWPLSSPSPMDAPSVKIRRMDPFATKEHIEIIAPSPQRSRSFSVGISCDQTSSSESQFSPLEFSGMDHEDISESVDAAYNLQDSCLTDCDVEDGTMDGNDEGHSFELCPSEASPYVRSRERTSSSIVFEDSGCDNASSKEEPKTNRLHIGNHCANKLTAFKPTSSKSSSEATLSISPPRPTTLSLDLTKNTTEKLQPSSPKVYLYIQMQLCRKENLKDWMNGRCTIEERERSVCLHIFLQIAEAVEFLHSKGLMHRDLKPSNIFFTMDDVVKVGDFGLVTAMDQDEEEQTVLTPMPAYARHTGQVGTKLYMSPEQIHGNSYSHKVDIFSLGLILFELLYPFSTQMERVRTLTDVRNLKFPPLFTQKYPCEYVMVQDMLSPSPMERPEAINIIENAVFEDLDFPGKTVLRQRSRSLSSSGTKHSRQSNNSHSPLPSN
Description: as §1

The target in another assay is T2, TSSK1 (Homo sapiens, UniProt Q9BXA7).
T2 sequence (Q9BXA7 1-367): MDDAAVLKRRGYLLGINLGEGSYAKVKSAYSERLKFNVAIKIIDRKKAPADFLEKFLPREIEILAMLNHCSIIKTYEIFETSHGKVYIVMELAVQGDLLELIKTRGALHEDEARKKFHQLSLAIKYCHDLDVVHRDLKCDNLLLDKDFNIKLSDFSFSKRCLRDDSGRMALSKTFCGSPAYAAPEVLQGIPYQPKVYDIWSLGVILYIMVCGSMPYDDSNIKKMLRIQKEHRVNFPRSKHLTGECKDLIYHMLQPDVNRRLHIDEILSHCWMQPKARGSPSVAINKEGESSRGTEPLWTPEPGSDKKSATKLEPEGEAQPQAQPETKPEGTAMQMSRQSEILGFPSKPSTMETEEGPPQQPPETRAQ
Description: as §1

Another assay deals with YES1 (Homo sapiens, UniProt P07947).
Chain of YES1 (P07947 whole entry): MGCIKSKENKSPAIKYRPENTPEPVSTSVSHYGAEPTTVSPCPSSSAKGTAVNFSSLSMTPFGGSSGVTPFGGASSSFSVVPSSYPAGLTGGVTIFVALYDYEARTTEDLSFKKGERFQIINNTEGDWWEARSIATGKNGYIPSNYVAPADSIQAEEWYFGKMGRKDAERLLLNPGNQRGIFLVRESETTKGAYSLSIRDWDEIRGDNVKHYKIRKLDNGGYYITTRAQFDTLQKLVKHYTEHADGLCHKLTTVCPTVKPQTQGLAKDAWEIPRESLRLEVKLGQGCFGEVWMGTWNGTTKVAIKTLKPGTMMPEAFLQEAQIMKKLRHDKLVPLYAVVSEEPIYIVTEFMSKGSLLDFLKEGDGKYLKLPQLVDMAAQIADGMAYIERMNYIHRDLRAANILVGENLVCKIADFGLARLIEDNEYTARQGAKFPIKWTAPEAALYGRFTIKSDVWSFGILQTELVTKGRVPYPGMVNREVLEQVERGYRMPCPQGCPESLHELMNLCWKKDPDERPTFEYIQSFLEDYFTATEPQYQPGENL
Description: as §1

The target of another assay is Src (Homo sapiens, UniProt P12931).
Chain of Src (P12931 whole entry): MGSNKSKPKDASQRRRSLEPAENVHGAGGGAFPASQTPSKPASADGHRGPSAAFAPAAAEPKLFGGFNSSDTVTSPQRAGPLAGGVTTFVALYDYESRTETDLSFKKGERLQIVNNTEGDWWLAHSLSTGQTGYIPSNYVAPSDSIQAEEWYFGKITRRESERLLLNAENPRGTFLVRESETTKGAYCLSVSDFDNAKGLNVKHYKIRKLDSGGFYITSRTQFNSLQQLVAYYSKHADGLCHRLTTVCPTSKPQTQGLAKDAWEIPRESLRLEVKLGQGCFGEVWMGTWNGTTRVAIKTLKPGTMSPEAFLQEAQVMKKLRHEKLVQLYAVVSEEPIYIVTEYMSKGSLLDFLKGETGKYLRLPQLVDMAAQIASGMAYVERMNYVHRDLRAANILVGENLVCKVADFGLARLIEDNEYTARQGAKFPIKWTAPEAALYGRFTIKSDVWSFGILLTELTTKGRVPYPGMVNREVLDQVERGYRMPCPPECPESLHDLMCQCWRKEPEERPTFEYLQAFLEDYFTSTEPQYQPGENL
Description: as §1

A further assay concerns the target CK1 delta (Homo sapiens, UniProt P48730).
Description: as §1

Another assay addresses GSK3 beta (Homo sapiens, UniProt P49841).
Description: as §1

For the next assay, the target named is IGF-1R (Homo sapiens, UniProt P08069).
Chain of IGF-1R (P08069 31-1367): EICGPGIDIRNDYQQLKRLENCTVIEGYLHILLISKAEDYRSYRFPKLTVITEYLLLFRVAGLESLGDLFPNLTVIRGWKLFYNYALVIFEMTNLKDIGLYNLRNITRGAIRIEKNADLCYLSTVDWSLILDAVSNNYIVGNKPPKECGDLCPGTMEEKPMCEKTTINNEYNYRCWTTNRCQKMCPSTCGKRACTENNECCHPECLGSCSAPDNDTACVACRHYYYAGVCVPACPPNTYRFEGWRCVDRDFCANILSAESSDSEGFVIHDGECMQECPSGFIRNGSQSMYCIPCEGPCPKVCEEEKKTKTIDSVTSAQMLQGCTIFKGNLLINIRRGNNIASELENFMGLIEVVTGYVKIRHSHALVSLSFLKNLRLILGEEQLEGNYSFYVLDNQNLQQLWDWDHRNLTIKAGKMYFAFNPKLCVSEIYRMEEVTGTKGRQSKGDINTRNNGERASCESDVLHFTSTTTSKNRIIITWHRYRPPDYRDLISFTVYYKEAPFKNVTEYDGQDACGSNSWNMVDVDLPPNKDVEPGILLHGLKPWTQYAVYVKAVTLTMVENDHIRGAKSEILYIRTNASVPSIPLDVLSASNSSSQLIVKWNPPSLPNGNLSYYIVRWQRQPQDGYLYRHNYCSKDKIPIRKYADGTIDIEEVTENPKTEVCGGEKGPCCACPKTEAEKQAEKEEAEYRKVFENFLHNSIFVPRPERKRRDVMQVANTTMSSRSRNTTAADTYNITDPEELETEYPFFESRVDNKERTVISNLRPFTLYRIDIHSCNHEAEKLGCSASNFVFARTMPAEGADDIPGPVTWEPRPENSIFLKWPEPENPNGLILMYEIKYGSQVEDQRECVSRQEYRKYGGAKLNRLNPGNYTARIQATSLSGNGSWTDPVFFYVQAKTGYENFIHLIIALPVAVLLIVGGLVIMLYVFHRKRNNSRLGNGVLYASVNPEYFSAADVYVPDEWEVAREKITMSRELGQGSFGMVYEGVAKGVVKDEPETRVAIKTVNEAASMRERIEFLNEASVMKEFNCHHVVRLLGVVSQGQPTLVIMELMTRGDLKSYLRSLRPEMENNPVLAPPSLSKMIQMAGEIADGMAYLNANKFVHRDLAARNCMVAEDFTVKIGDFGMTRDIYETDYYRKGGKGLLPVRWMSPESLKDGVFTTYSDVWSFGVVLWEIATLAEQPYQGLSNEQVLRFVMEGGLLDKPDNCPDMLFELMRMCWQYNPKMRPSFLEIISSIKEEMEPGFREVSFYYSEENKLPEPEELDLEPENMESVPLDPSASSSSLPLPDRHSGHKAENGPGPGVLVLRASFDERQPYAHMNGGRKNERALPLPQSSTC
Description: as §1

The next assay has as its target PDGFRA (Homo sapiens, UniProt P16234).
Description: as §1

For the next assay, the target named is JNK2 (Homo sapiens, UniProt P45984).
Chain of JNK2 (P45984 whole entry): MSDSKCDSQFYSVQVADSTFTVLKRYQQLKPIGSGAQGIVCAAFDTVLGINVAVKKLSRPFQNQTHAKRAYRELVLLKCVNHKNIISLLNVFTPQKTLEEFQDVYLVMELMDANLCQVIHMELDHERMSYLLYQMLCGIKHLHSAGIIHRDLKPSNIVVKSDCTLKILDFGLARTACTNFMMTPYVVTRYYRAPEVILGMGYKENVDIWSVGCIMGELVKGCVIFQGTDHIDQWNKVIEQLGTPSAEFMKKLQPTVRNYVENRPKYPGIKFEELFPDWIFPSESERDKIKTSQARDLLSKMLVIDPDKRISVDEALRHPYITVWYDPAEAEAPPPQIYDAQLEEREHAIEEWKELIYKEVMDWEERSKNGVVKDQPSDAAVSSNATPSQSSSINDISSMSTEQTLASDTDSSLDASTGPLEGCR
Description: as §1

A further assay deals with T3, DYRK3 (Homo sapiens, UniProt O43781).
T3 sequence (O43781 1-588): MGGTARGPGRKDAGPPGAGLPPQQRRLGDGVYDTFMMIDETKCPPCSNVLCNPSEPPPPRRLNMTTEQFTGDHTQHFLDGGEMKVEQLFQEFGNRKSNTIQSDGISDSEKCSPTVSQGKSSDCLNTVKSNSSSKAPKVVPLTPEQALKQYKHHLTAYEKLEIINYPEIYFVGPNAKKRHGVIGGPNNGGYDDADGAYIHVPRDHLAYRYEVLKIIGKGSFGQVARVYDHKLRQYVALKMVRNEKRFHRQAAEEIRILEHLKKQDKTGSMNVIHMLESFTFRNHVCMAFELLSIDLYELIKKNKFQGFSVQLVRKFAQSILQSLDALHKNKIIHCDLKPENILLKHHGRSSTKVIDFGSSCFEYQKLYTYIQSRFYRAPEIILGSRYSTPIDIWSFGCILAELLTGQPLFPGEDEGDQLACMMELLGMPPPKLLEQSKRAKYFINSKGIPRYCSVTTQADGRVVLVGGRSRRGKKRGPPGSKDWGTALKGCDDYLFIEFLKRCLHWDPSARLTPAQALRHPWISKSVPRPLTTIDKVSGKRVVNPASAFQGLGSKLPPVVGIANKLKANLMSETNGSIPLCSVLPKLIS
Description: as §1

In the next assay the target is p38 alpha MAPK (Homo sapiens, UniProt Q16539).
Chain of p38 alpha MAPK (Q16539 whole entry): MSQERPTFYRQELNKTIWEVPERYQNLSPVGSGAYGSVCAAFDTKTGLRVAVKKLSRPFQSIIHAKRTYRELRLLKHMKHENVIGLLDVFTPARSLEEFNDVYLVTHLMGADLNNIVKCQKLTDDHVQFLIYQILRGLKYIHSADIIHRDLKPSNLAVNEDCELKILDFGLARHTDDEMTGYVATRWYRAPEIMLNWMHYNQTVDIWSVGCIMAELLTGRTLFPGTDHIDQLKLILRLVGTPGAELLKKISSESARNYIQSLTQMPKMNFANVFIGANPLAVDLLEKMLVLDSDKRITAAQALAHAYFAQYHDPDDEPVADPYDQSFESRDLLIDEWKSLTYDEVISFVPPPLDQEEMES
Description: as §1

The target in the next assay is MST4 (Homo sapiens, UniProt Q9P289).
Description: as §1

Read-outs that look alike come from different tables or passages of the source.

Chain of GSK3 beta (P49841 whole entry): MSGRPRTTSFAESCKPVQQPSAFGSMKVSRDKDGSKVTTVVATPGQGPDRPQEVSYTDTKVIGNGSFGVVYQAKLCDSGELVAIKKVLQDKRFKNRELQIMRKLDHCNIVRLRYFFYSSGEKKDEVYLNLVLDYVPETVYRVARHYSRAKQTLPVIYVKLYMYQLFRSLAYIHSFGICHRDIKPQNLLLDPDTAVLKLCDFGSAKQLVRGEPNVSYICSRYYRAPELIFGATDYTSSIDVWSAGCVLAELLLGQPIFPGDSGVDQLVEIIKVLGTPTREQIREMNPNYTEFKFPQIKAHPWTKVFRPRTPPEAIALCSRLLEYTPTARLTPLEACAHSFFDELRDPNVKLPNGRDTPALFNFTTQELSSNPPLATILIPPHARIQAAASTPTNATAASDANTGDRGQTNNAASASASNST
Chain of PDGFRA (P16234 24-1089): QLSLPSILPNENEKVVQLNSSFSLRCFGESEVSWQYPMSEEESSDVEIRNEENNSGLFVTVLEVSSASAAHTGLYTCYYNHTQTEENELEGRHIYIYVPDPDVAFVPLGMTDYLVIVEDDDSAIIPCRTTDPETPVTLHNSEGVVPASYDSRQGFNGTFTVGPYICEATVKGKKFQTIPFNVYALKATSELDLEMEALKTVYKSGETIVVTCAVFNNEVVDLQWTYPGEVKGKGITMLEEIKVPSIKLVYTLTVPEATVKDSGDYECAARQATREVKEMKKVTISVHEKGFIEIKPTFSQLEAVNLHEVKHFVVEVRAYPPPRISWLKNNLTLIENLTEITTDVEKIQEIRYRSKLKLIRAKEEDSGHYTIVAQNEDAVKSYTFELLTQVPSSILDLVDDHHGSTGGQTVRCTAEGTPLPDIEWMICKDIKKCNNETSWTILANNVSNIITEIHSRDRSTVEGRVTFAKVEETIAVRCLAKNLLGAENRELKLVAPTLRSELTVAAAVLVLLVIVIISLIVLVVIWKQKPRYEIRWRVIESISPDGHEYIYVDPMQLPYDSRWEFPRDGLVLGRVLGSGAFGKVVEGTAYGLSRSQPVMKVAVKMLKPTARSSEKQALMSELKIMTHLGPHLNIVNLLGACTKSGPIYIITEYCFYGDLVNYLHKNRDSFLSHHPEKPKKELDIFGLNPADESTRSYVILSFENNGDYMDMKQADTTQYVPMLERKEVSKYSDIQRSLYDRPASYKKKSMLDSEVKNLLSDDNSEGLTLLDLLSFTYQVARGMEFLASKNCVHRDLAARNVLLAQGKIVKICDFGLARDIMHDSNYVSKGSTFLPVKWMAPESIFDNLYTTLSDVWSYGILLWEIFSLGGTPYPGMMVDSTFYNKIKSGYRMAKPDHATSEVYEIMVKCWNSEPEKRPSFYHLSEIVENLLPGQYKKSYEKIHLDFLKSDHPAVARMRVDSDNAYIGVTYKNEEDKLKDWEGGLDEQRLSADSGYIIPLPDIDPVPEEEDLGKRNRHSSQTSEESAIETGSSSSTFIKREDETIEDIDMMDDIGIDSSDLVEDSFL

Turning to `COc1ccc(Cl)c(S(=O)(=O)Nc2ccc(-c3nc(OC[C@H]4CNCCO4)c4c(C)n[nH]c4n3)cc2)c1` [290-R, reference compound], the remaining activity at 1 µM at EF2K worked out at 112%; at JNK3, 104%; at EIF2AK3, 66%; on TSSK1 it was 98%; at YES1 it was 92%; at Src, 104%. Further, the remaining activity at 1 µM at CK1 delta was 65%; at GSK3 beta it was 90%; on IGF-1R it was 88%; on PDGFRA it was 91%; at JNK2, 105%; on DYRK3 it was 89%. Further, the remaining activity at 1 µM on p38 alpha MAPK was 111%; on MST4, 50%.
For `Cc1ccc(F)c(S(=O)(=O)Nc2ccc(-c3nc(OC[C@H]4CNCCO4)c4cn[nH]c4n3)cc2)c1` [308-R, reference compound], the remaining activity at 1 µM at EF2K was found to be 128%; on JNK3 it was 112%; at EIF2AK3, 63%; at TSSK1, 94%; at YES1, 71%; on Src, 131%. The remaining activity at 1 µM on CK1 delta came out at 121%; on GSK3 beta it was 92%; at IGF-1R it was 95%; at PDGFRA it was 115%; at JNK2, 113%; on DYRK3 it was 99%. For the same compound, the remaining activity at 1 µM was found to be 88% at p38 alpha MAPK and 98% at MST4.
Regarding `Cc1ccc(F)c(S(=O)(=O)Nc2ccc(-c3nc(OC[C@H]4CN(CCCCCCOCCOCCOCC(=O)N[C@H](C(=O)N5C[C@H](O)C[C@H]5C(=O)NCc5ccc(-c6scnc6C)cc5)C(C)(C)C)CCO4)c4cn[nH]c4n3)cc2)c1` [SGK3-PROTAC1], the remaining activity at 1 µM on EF2K (1 µM) was 98%; at JNK3 (1 µM), 92%; at EIF2AK3 (1 µM), 106%; on TSSK1 (1 µM), 115%; at YES1 (1 µM), 108%; on Src (1 µM), 83%. In addition, the remaining activity at 1 µM turned out to be 95% at CK1 delta (1 µM); 108% at GSK3 beta (1 µM); 82% on IGF-1R (1 µM); 101% on PDGFRA (1 µM); 117% at JNK2 (1 µM); 102% on DYRK3 (1 µM). Further, the remaining activity at 1 µM is 125% on p38 alpha MAPK (1 µM) and 106% at MST4 (1 µM).
Consider `Cc1ccc(F)c(S(=O)(=O)Nc2ccc(-c3nc(OC[C@H]4CN(CCCCCCOCCOCCOCC(=O)N[C@H](C(=O)N5C[C@@H](O)C[C@H]5C(=O)NCc5ccc(-c6scnc6C)cc5)C(C)(C)C)CCO4)c4cn[nH]c4n3)cc2)c1` [cisSGK3-PROTAC1], for which the remaining activity at 1 µM on EF2K (1 µM) amounted to 105%; on JNK3 (1 µM), 83%; at EIF2AK3 (1 µM) it was 111%; on TSSK1 (1 µM), 113%; on YES1 (1 µM), 105%; on Src (1 µM), 87%. Moreover, the remaining activity at 1 µM amounted to 108% at CK1 delta (1 µM); 106% at GSK3 beta (1 µM); 93% at IGF-1R (1 µM); 95% on PDGFRA (1 µM); 109% at JNK2 (1 µM); 104% at DYRK3 (1 µM). Further, the remaining activity at 1 µM on p38 alpha MAPK (1 µM) is 109%; at MST4 (1 µM), 99%.

The term remaining activity denotes the signal under treatment as a percentage of the control signal.

The record behind these values is paper PMC6757289, “Design and Characterization of SGK3-PROTAC1, an Isoform Specific SGK3 Kinase PROTAC Degrader” (ACS Chemical Biology, 2019).
